Test results as given in patent publication US20230301300A1, “HERBICIDAL COMPOSITIONS” (SYNGENTA CROP PROTECTION AG, priority 2020, published 2023).

Experiments:
Assay in all cases: B2 Post-Emergence Efficacy - Test 2
Format in all cases: in vivo
[1] = tested on: Abutilon theophrasti (ABUTH); details: 15 days after application, 0-100 scale
Outline: (§1)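 Visual phytotoxicity on a 0–100 scale, where 100 means total kill, was recorded 15 days following a single post-emergence spray. The spray was an aqueous dilution of active ingredient in IF50 with 0.2% v/v Genapol X080, applied to 12-day-old plants.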

[2] = tested on: Alopecurus myosuroides (ALOMY); details: 15 days after application, 0-100 scale
Outline: as §1

[3] = tested on: Bidens pilosa (BIDPI); details: 15 days after application, 0-100 scale
Outline: as §1

[4] = tested on: Brachiaria plantaginea (BRAPL); details: 15 days after application, 0=no damage, 100=total kill
Outline: as §1

[5] = tested on: Bromus tectorum (BROTE); details: 15 days after application, 0-100 scale
Outline: as §1

[6] = tested on: Chenopodium album (CHEAL); details: 15 days after application, 0-100 scale
Outline: as §1

[7] = tested on: Digitaria sanguinalis (DIGSA); details: 15 days after application, 0=no damage, 100=total kill
Outline: as §1

[8] = tested on: Echinochloa crus galli (ECHCG); details: 15 days after application, 0=no damage, 100=total kill
Outline: as §1

[9] = tested on: Eleisine indica (ELEIN); details: 15 days after application, 0=no damage, 100=total kill
Outline: as §1

[10] = tested on: Euphorbia hetrophylla (EPHHL); details: 15 days after application, 0-100 scale
Outline: as §1

[11] = tested on: Hordeum vulgare (HORVW); details: 15 days after application, 0-100 scale
Outline: as §1

[12] = tested on: Lolium perenne (LOLPE); details: 15 days after application, 0-100 scale
Outline: as §1

[13] = tested on: Setaria faberi (SETFA); details: 15 days after application, 0=no damage, 100=total kill
Outline: as §1

[14] = tested on: Sinapis arvensis (SINAR); details: 15 days after application, 0-100 scale
Outline: as §1

[15] = tested on: Sorghum bicolour (SORVU); details: 15 days after application, 0=no damage, 100=total kill
Outline: as §1

[16] = tested on: Stellaria media (STEME); details: 15 days after application, 0-100 scale
Outline: as §1

[17] = tested on: Triticum aestivum (TRZAW); details: 15 days after application, 0-100 scale
Outline: as §1

[18] = tested on: Zea mays (ZEAMX); details: 15 days after application; for Herbicidal activity ZEAMX: 0-100 scale; for Herbicidal activity on a 0-100 scale, ZEAMX: 0=no damage, 100=total kill
Outline: as §1

## Cc1nn(C)c(=O)c(-c2c(F)ccc(Cl)c2CCc2ccc(Cl)cc2)c1OC(=O)C(C)C [Compound 1.089, [5-[3-chloro-2-[2-(4-chlorophenyl)ethyl]-6-fluoro-phenyl]-1,3-dimethyl-6-oxo-pyridazin-4-yl] 2-methylpropanoate]
[1]; 15 g/Ha
  Herbicidal activity ABUTH: 70
[1]; 30 g/Ha
  Herbicidal activity ABUTH: 90
[1]; 60 g/Ha
  Herbicidal activity ABUTH: 100
[1]; 125 g/Ha
  Herbicidal activity ABUTH: 100
[1]; 250 g/Ha
  Herbicidal activity ABUTH: 100
[1]; 500 g/Ha
  Herbicidal activity ABUTH: 100
[2]; 15 g/Ha
  Herbicidal activity ALOMY: 20
[2]; 30 g/Ha
  Herbicidal activity ALOMY: 50
[2]; 60 g/Ha
  Herbicidal activity ALOMY: 50
[2]; 125 g/Ha
  Herbicidal activity ALOMY: 80
[2]; 250 g/Ha
  Herbicidal activity ALOMY: 80
[2]; 500 g/Ha
  Herbicidal activity ALOMY: 90
[3]; 15 g/Ha
  Herbicidal activity BIDPI: 70
[3]; 30 g/Ha
  Herbicidal activity BIDPI: 60
[3]; 60 g/Ha
  Herbicidal activity BIDPI: 70
[3]; 125 g/Ha
  Herbicidal activity BIDPI: 80
[3]; 250 g/Ha
  Herbicidal activity BIDPI: 80
[3]; 500 g/Ha
  Herbicidal activity BIDPI: 100
[4]; 15 g/Ha
  Herbicidal activity on a 0-100 scale, BRAPL: 80
[4]; 30 g/Ha
  Herbicidal activity on a 0-100 scale, BRAPL: 90
[4]; 250 g/Ha
  Herbicidal activity on a 0-100 scale, BRAPL: 90
[4]; 500 g/Ha
  Herbicidal activity on a 0-100 scale, BRAPL: 90
[5]; 15 g/Ha
  Herbicidal activity BROTE: 0
[5]; 30 g/Ha
  Herbicidal activity BROTE: 0
[5]; 60 g/Ha
  Herbicidal activity BROTE: 10
[5]; 125 g/Ha
  Herbicidal activity BROTE: 30
[5]; 250 g/Ha
  Herbicidal activity BROTE: 60
[5]; 500 g/Ha
  Herbicidal activity BROTE: 70
[6]; 15 g/Ha
  Herbicidal activity CHEAL: 80
[6]; 30 g/Ha
  Herbicidal activity CHEAL: 90
[6]; 60 g/Ha
  Herbicidal activity CHEAL: 90
[6]; 125 g/Ha
  Herbicidal activity CHEAL: 100
[6]; 250 g/Ha
  Herbicidal activity CHEAL: 100
[6]; 500 g/Ha
  Herbicidal activity CHEAL: 100
[7]; 15 g/Ha
  Herbicidal activity on a 0-100 scale, DIGSA: 0
[7]; 30 g/Ha
  Herbicidal activity on a 0-100 scale, DIGSA: 0
[7]; 60 g/Ha
  Herbicidal activity on a 0-100 scale, DIGSA: 0
[7]; 125 g/Ha
  Herbicidal activity on a 0-100 scale, DIGSA: 10
[7]; 250 g/Ha
  Herbicidal activity on a 0-100 scale, DIGSA: 40
[7]; 500 g/Ha
  Herbicidal activity on a 0-100 scale, DIGSA: 30
[8]; 15 g/Ha
  Herbicidal activity on a 0-100 scale, ECHCG: 80
[8]; 30 g/Ha
  Herbicidal activity on a 0-100 scale, ECHCG: 80
[8]; 60 g/Ha
  Herbicidal activity on a 0-100 scale, ECHCG: 80
[8]; 125 g/Ha
  Herbicidal activity on a 0-100 scale, ECHCG: 90
[8]; 250 g/Ha
  Herbicidal activity on a 0-100 scale, ECHCG: 90
[8]; 500 g/Ha
  Herbicidal activity on a 0-100 scale, ECHCG: 100
[9]; 15 g/Ha
  Herbicidal activity on a 0-100 scale, ELEIN: 0
[9]; 30 g/Ha
  Herbicidal activity on a 0-100 scale, ELEIN: 0
[9]; 60 g/Ha
  Herbicidal activity on a 0-100 scale, ELEIN: 70
[9]; 125 g/Ha
  Herbicidal activity on a 0-100 scale, ELEIN: 80
[9]; 250 g/Ha
  Herbicidal activity on a 0-100 scale, ELEIN: 90
[9]; 500 g/Ha
  Herbicidal activity on a 0-100 scale, ELEIN: 90
[10]; 15 g/Ha
  Herbicidal activity EPHHL: 80
[10]; 30 g/Ha
  Herbicidal activity EPHHL: 100
[10]; 60 g/Ha
  Herbicidal activity EPHHL: 100
[10]; 125 g/Ha
  Herbicidal activity EPHHL: 100
[10]; 250 g/Ha
  Herbicidal activity EPHHL: 100
[10]; 500 g/Ha
  Herbicidal activity EPHHL: 100
[11]; 15 g/Ha
  Herbicidal activity HORVW: 10
[11]; 30 g/Ha
  Herbicidal activity HORVW: 10
[11]; 60 g/Ha
  Herbicidal activity HORVW: 20
[11]; 125 g/Ha
  Herbicidal activity HORVW: 20
[11]; 250 g/Ha
  Herbicidal activity HORVW: 30
[11]; 500 g/Ha
  Herbicidal activity HORVW: 60
[12]; 15 g/Ha
  Herbicidal activity LOLPE: 40
[12]; 30 g/Ha
  Herbicidal activity LOLPE: 70
[12]; 60 g/Ha
  Herbicidal activity LOLPE: 80
[12]; 125 g/Ha
  Herbicidal activity LOLPE: 90
[12]; 250 g/Ha
  Herbicidal activity LOLPE: 90
[12]; 500 g/Ha
  Herbicidal activity LOLPE: 90
[13]; 15 g/Ha
  Herbicidal activity on a 0-100 scale, SETFA: 0
[13]; 30 g/Ha
  Herbicidal activity on a 0-100 scale, SETFA: 20
[13]; 60 g/Ha
  Herbicidal activity on a 0-100 scale, SETFA: 30
[13]; 125 g/Ha
  Herbicidal activity on a 0-100 scale, SETFA: 60
[13]; 250 g/Ha
  Herbicidal activity on a 0-100 scale, SETFA: 60
[13]; 500 g/Ha
  Herbicidal activity on a 0-100 scale, SETFA: 80
[14]; 15 g/Ha
  Herbicidal activity SINAR: 70
[14]; 30 g/Ha
  Herbicidal activity SINAR: 80
[14]; 60 g/Ha
  Herbicidal activity SINAR: 90
[14]; 125 g/Ha
  Herbicidal activity SINAR: 90
[14]; 250 g/Ha
  Herbicidal activity SINAR: 90
[14]; 500 g/Ha
  Herbicidal activity SINAR: 90
[15]; 15 g/Ha
  Herbicidal activity on a 0-100 scale, SORVU: 0
[15]; 30 g/Ha
  Herbicidal activity on a 0-100 scale, SORVU: 60
[15]; 60 g/Ha
  Herbicidal activity on a 0-100 scale, SORVU: 70
[15]; 125 g/Ha
  Herbicidal activity on a 0-100 scale, SORVU: 90
[15]; 250 g/Ha
  Herbicidal activity on a 0-100 scale, SORVU: 90
[15]; 500 g/Ha
  Herbicidal activity on a 0-100 scale, SORVU: 90
[16]; 15 g/Ha
  Herbicidal activity STEME: 90
[16]; 30 g/Ha
  Herbicidal activity STEME: 90
[16]; 60 g/Ha
  Herbicidal activity STEME: 90
[16]; 125 g/Ha
  Herbicidal activity STEME: 90
[16]; 250 g/Ha
  Herbicidal activity STEME: 90
[16]; 500 g/Ha
  Herbicidal activity STEME: 90
[17]; 15 g/Ha
  Herbicidal activity TRZAW: 0
[17]; 30 g/Ha
  Herbicidal activity TRZAW: 0
[17]; 60 g/Ha
  Herbicidal activity TRZAW: 20
[17]; 125 g/Ha
  Herbicidal activity TRZAW: 30
[17]; 250 g/Ha
  Herbicidal activity TRZAW: 60
[17]; 500 g/Ha
  Herbicidal activity TRZAW: 70
[18]; 15 g/Ha
  Herbicidal activity ZEAMX: 0
  Herbicidal activity on a 0-100 scale, ZEAMX: 0
[18]; 30 g/Ha
  Herbicidal activity ZEAMX: 20
  Herbicidal activity on a 0-100 scale, ZEAMX: 20
[18]; 60 g/Ha
  Herbicidal activity ZEAMX: 30
  Herbicidal activity on a 0-100 scale, ZEAMX: 30
[18]; 125 g/Ha
  Herbicidal activity ZEAMX: 30
  Herbicidal activity on a 0-100 scale, ZEAMX: 30
[18]; 250 g/Ha
  Herbicidal activity ZEAMX: 90
  Herbicidal activity on a 0-100 scale, ZEAMX: 90
[18]; 500 g/Ha
  Herbicidal activity ZEAMX: 100
  Herbicidal activity on a 0-100 scale, ZEAMX: 100
